One assay deals with T1, GSK3-β (UniProt P18266).
T1 construct: GSK-3β was either purified from rabbit muscle or expressed in and purified from insect Sf9 cells [18]
Put plainly: GSK-3β kinase assay (GS-1 peptide). The assay is classed as biochemical, rabbit. As to the method: (§1) Kinases activities were assayed in Buffer A or C (unless otherwise stated), at 30° C., at a final ATP concentration of 15 μM. Blank values were subtracted and activities calculated as pmoles of phosphate incorporated for a 10 min. incubation (usually expressed in % of the maximal activity, i.e. without inhibitors). Controls were performed with appropriate dilutions of Me2SO. In some cases phosphorylation of the substrate was assessed by autoradiography after SDS-PAGE. IC50 values were estimated from the dose-response curves. • CDK1/cyclin B was extracted in homogenisation buffer from M phase starfish (Marthasterias glacialis) oocytes and purified by affinity chromatography on p9^CKShs1-Sepharose beads, from which it was eluted by free p9^CKShs1 as described. The kinase activity was assayed in buffer C, with 1 mg histone H1/ml, in the presence of 15 μM [γ-^32P] ATP (3,000 Ci/mmol; 1 mCi/ml) in a final volume of 30 μl. After 10 min. incubation at 30° C., 25 μl aliquots of supernatant were spotted onto 2.5×3 cm pieces of Whatman P81 phosphocellulose paper, and, 20 sec. later, the filters were washed five times (for at least 5 min. each time) in a solution of 10 ml phosphoric acid/liter of water. The wet filters were counted in the presence of 1 ml ACS (Amersham) scintillation fluid. • GSK-3β was either purified from rabbit muscle or expressed in and purified from insect Sf9 cells. It was assayed, following a 1/100 dilution in 1 mg BSA/ml 10 mM DTT, with 5 μl 40 μM GS-1 peptide as a substrate, in buffer A, in the presence of 15 μM [γ-^32P] ATP (3,000 Ci/mmol; 1 mCi/ml) in a final volume of 30 μl. […] Its activity was assayed in buffer C as described for CDK1/cyclin B. • CDK2/cyclin A, CDK2/cyclin E, CDK3/cyclin E, CDK4/cyclin D1, CDK6/cyclin D2, His-tagged erk1 and erk2, protein kinase C isoforms, the catalytic subunit of cAMP-dependent protein kinase, cGMP-dependent protein kinase, Myosin light chain kinase, casein kinases 1 & 2, ASK-γ (a plant homologue of GSK-3), insulin receptor tyrosine kinase domain (CIRK-41), c-raf, MAPKK, c-jun N terminal kinase (obtained from Promega), c-src kinase and v-abl kinase were assayed as described. Electrophoresis and Western Blotting

The target of the next assay is CDK1/cyclin B. Put plainly: CDK1/cyclin B kinase assay (histone H1). As to conditions: 15 μM ATP; −(x) = no effect at highest concentration x tested. Format: biochemical, starfish (Marthasterias glacialis). As for the experimental part:
as §1

The target of another assay is casein kinase 1. Put plainly: casein kinase 1 assay. Format: biochemical. As to conditions: 15 μM ATP; −(x) = no effect at highest concentration x tested; read-out: IC50 casein kinase 1 (CK 1). As for the experimental part:
as §1

The next assay deals with cdk5/p25 (Homo sapiens, UniProt Q00535). Put plainly: CDK5/p25 kinase assay. The assay is classed as biochemical. The settings on record: for IC50: 15 μM ATP, −(x) = no effect at highest concentration x tested. As to the method: as §1
In a further assay the test system is lung, H460. As to the kind of experiment: Human cancer cell line H460 proliferation. Format: cell-based. As to conditions: NCI-H460.
Another assay deals with kidney, A498. As to the kind of experiment: Human cancer cell line A498 proliferation. The assay is classed as cell-based.
In the next assay the test system is colon, KM20L2. As to the kind of experiment: Human cancer cell line KM20L2 proliferation. Format: cell-based. As to conditions: KM-20L2.
Another assay deals with melanoma, SK-MEL-5. As to the kind of experiment: Human cancer cell line SK-MEL-5 proliferation. Format: cell-based.
A further assay relates to brain, SF-295. As to the kind of experiment: Human cancer cell line SF-295 proliferation. Format: cell-based.
The subject of the next assay is ovary, OVCAR-3. As to the kind of experiment: Human cancer cell line OVCAR-3 proliferation. Format: cell-based.
The next assay concerns P388 cell line. As to the kind of experiment: Inhibition of cell proliferation, P388. Format: cell-based.
Assay [1] concerns GSK-3β like activity in Sf9 cells. Put plainly: Tau (htau23) phosphorylation in Sf9 cells, Western blotting. Format: cell-based. The settings on record: 50 μM, 5 hrs, Sf9 cells expressing htau23.
Description: Cells and viruses. Sf9 cells (InVitrogen, San Diego, Calif.) were grown at 27° C. in monolayer culture Grace's medium (Gibco BRL, Gaithersburg, Md.) supplemented with 10% fetal bovine serum and 50 μg gentamycin/ml and 2.5 μg amphotericin/ml. BaculoGold was obtained from PharMingen (San Diego, Calif.), pVL1392 from In Vitrogen.
Tau transfection. The gene for htau23, the shortest human tau isoform [27] was excised from the bacterial expression vector pNG2 [28] with XbaI and BamHI, and inserted into the baculovirus transfer vector pVL1392 cut with the same restriction endonucleases. The BaculoGold system was used to construct the tau baculovirus containing vector. The BaculoGold DNA is a modified type of baculovirus containing a lethal deletion. Cotransfection of the BaculoGold DNA with a complementing baculovirus transfer vector rescued the lethal deletion of this virus DNA and reconstituted viable virus particles carrying the htau23 coding sequence. Plasmid DNA used for transfections was purified using QIAGEN cartridges (Hilden, Germany). Sf9 cells grown in monolayers (2×10^6 cells in a 60 mm cell culture dish) were cotransfected with baculovirus DNA (0.5 μg BaculoGold DNA) and with vector derivatives of pVL1392 (2 μg) using a calcium phosphate coprecipitation method. […]
The mark [2] stands for this setting: 15 μM ATP, −(x) = no effect at highest concentration x tested, read-out: IC50 GSK3-β.

In brackets after ≈: the same amount, converted by molar mass. Like-named read-outs stand apart in the source and are kept apart here. Some results are limits rather than exact numbers.

One may read the IC50 as the concentration at which inhibition is half-maximal.

cdk5/p25, sequence (Q00535 whole entry, species assumed): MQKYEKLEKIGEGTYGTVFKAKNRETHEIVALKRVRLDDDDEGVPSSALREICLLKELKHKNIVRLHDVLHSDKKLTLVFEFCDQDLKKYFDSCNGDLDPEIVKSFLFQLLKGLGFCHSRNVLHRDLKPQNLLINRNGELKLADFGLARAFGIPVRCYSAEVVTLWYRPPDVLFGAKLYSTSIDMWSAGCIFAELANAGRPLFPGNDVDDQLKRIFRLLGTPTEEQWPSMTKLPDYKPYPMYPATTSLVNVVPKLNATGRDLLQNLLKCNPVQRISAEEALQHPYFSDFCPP
cdk5/p25, sequence (Q15078 99-307 partner limits assumed, species assumed): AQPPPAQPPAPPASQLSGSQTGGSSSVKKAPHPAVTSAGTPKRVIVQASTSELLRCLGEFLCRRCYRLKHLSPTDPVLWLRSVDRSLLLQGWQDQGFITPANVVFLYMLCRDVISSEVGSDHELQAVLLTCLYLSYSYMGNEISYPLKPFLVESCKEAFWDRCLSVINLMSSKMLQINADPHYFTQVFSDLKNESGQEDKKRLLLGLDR

For `O=C1NC(=O)/C(=C2/CCNC(=O)c3[nH]c(Br)cc32)N1` [axinohydantoin], the IC50 at GSK3-β (setting [2]) turned out to be 3 µM; against CDK1/cyclin B, 4 µM; on casein kinase 1 it was 4.5 µM; on cdk5/p25, 7 µM.

As for `Nc1ncc(C2c3nc(N)[nH]c3CC(CNC(=O)c3cc(Br)c(Br)[nH]3)C2CNC(=O)c2cc(Br)c(Br)[nH]2)[nH]1` (centres unmarked) [dibromoageliferin], the IC50 at GSK3-β (setting [2]) is 11 µM; against CDK1/cyclin B it was above 100 µM; at casein kinase 1, above 100 µM; against cdk5/p25, above 100 µM.

For the compound `Nc1ncc(C2=CCNC(=O)c3[nH]c(Br)c(Br)c32)[nH]1` [stevensine/odiline], the IC50 was above 100 µM at GSK3-β (setting [2]), 70 µM on CDK1/cyclin B, above 100 µM on casein kinase 1 and above 100 µM against cdk5/p25.

With `Nc1ncc(/C=C/CNC(=O)c2ccc[nH]2)[nH]1` [clathrodin], the IC50 on CDK1/cyclin B, on casein kinase 1 and on cdk5/p25 was above 100 µM each time.

As for `NC1=N[C@H]2n3c(cc(Br)c3Br)C(=O)N3CCC[C@]23N1` [dibromophakellin, reference compound], the IC50 was determined as 22 µg/mL (≈ 56.5 µM) in the assay with lung, H460; 17.8 µg/mL (≈ 45.8 µM) in the assay with kidney, A498; 20.1 µg/mL (≈ 51.7 µM) in the assay on colon, KM20L2; 17 µg/mL (≈ 43.7 µM) in the assay on melanoma, SK-MEL-5; 18.8 µg/mL (≈ 48.3 µM) in the assay on brain, SF-295; 15.7 µg/mL (≈ 40.4 µM) in the assay with ovary, OVCAR-3.

As for `Nc1ncc(/C=C/CNC(=O)c2cc(Br)c[nH]2)[nH]1` [hymenidin], the concentration for half-maximal inhibition (IC50) on GSK3-β (setting [2]) was 12 µM; at CDK1/cyclin B it was above 100 µM; on casein kinase 1, above 100 µM; at cdk5/p25 it was 4 µM. Besides, the “kinase selectivity among CDK1, CDK5, GSK-3β, CK1” value at cdk5/p25 (in words) is “selective for CDK5”.

For the compound `NC1=NC(=O)/C(=C/CCNC(=O)c2cc(Br)c(Br)[nH]2)N1` [dispacamide A], the IC50 on GSK3-β (setting [2]), on CDK1/cyclin B, on casein kinase 1 and against cdk5/p25 was above 100 µM in each case.

For the compound diacetylhymenialdisine, in the assay on P388 cell line, the “IC50 on P388 cell line” value amounted to 0.56 µg/mL. Besides, the IC50 with P388 cell line (read-out: IC50 on P388 cell line in μM (parentheses)) is 1.7 µM; on GSK3-β (setting [2]), 0.16 µM; against CDK1/cyclin B, 0.13 µM; at casein kinase 1, 0.55 µM; at cdk5/p25 it was 1.5 µM.

Consider `Nc1ncc(/C=C/CNC(=O)c2cc(Br)c(Br)[nH]2)[nH]1` [oroïdin], for which the IC50 was 20 µM on GSK3-β (setting [2]), above 100 µM against CDK1/cyclin B, above 100 µM at casein kinase 1 and 50 µM against cdk5/p25.

Regarding `CN1CC[C@H](c2c(O)cc(O)c3c(=O)cc(-c4ccccc4Cl)oc23)[C@H](O)C1` [flavopiridol, reference compound], the “AT100 signal (tau phosphorylated at T212 and S214)” value in [1] was “disappearance of AT100 signal”.

As to `NC1=N[C@H]2c3c([nH]c(Br)c3Br)C(=O)N3CCC[C@]23N1` [dibromocantharelline], the IC50 at GSK3-β (read-out: IC50 towards GSK-3β) is 3 µM; at CDK1/cyclin B it was above 100 µM; at casein kinase 1 it was above 100 µM; against cdk5/p25, above 100 µM.

For `O=C1N[C@H]2n3c(cc(Br)c3Br)C(=O)N3CCC[C@]23N1` [dibromophakellstatin], the IC50 is 0.62 µg/mL (≈ 1.59 µM) in the assay with lung, H460; above 10 µM at GSK3-β (setting [2]); 0.21 µg/mL (≈ 0.538 µM) in the assay on kidney, A498; 0.11 µg/mL (≈ 0.282 µM) in the assay on colon, KM20L2; 0.11 µg/mL (≈ 0.282 µM) in the assay on melanoma, SK-MEL-5; above 10 µM against CDK1/cyclin B. The IC50 on casein kinase 1 was above 10 µM; against cdk5/p25 it was above 100 µM; with brain, SF-295, 1.5 µg/mL (≈ 3.85 µM); in the assay on ovary, OVCAR-3, 0.46 µg/mL (≈ 1.18 µM).

For the compound `Nc1nc([C@H]2[C@H](CNC(=O)c3cc(Br)c[nH]3)[C@@H](CNC(=O)c3cc(Br)c[nH]3)[C@@H]2c2c[nH]c(N)n2)c[nH]1` [sceptrin], the IC50 on GSK3-β (setting [2]), against CDK1/cyclin B, on casein kinase 1 and against cdk5/p25 was above 100 µM each time.

Regarding `O=C([O-])c1ccc[n+](CCOC(=O)c2cc(Br)c[nH]2)c1` [agelongine], the IC50 at GSK3-β (setting [2]), on CDK1/cyclin B, at casein kinase 1 and against cdk5/p25 was above 100 µM throughout.

As for diacetyldebromohymenialdisine, the half-inhibitory concentration (IC50) was 0.6 µM at GSK3-β (setting [2]), 1.3 µM against CDK1/cyclin B, 1.1 µM on casein kinase 1 and 3 µM on cdk5/p25.

In the case of agelastatin A, the IC50 is 12 µM at GSK3-β (setting [2]), above 100 µM against CDK1/cyclin B, above 100 µM at casein kinase 1 and above 100 µM at cdk5/p25.

Source of the values: patent US7098204B2 (C.N.R.S., priority 1999, dated 2006).
